Results published in PubChem BioAssay (NCI).
Values joined by “and” are separate entries in the source; they are usually repeats but may differ in a detail not shown here. Identical values can stand only once.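 Five compound concentrations were applied to cells in 96-well plates for 48 hours; endpoints were derived by simple linear interpolation of the resulting dose-response curve. Abbreviation: GI50, concentration required for 50% inhibition of growth. TGI is the concentration that stops growth completely.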

What was measured:
Assay in all cases: DTP human tumour cell line panel, 48 h
CCRF-CEM leukemia = test system: CCRF-CEM leukemia
RPMI-8226 leukemia = test system: RPMI-8226 leukemia
LOX IMVI melanoma = test system: LOX IMVI melanoma
SW-620 colon = test system: SW-620 colon
EKVX NSCLC = test system: EKVX NSCLC
M14 melanoma = test system: M14 melanoma
SF-268 CNS = test system: SF-268 CNS
PC-3 prostate = test system: PC-3 prostate
MCF7 breast = test system: MCF7 breast
BT-549 breast = test system: BT-549 breast

| Structure (SMILES) | TGI (CCRF-CEM leukemia) | TGI (RPMI-8226 leukemia) | TGI (LOX IMVI melanoma) | TGI (SW-620 colon) [µM] | TGI (EKVX NSCLC) | GI50 (CCRF-CEM leukemia) [µM] | GI50 (M14 melanoma) [µM] | TGI (M14 melanoma) [µM] | GI50 (RPMI-8226 leukemia) [µM] | GI50 (SF-268 CNS) [µM] | TGI (SF-268 CNS) | GI50 (LOX IMVI melanoma) [µM] | GI50 (SW-620 colon) [µM] | GI50 (EKVX NSCLC) [µM] | GI50 (PC-3 prostate) [µM] | TGI (PC-3 prostate) [µM] | GI50 (MCF7 breast) [µM] | TGI (MCF7 breast) [µM] | GI50 (BT-549 breast) [µM] | TGI (BT-549 breast) [µM] |
| --- | --- | --- | --- | --- | --- | --- | --- | --- | --- | --- | --- | --- | --- | --- | --- | --- | --- | --- | --- | --- |
| CCOC(=O)CN(Cn1cncn1)Cn1cncn1 | > 100 µM | > 100 µM | 43.4 µM | 60 | > 100 µM | – | – | – | – | – | – | – | – | – | – | – | – | – | – | – |
| [O-]c1ccccc1C=Nc1ccc2c(c1)CCC2.[O-]c1ccccc1C=Nc1ccc2c(c1)CCC2.[O]=[U+2]=[O] | > 100 µM | > 100 µM | > 100 µM | > 100 | > 100 µM | 8.39 | > 100 | > 100 | 16.5 | > 100 | > 100 µM | 9.92 | > 100 | > 100 | – | – | – | – | – | – |
| COC(=O)C1C(=O)CC2CCCCC21 (stereo not drawn) | > 100 µM | > 100 µM | – | > 100 | – | – | – | > 100 | – | – | > 100 µM | – | – | – | – | – | – | – | – | – |
| Cc1ccc(Oc2ccccc2N)cc1 | > 100 µM | > 100 µM | > 100 µM | > 100 | > 100 µM | – | – | > 100 | – | – | > 100 µM | – | – | – | – | – | – | – | – | – |
| O=c1c2cc(-c3ccccc3)sc2ncn1Cc1ccc(Cl)c(Cl)c1 | – | > 100 µM | > 100 µM | > 100 | > 100 µM | – | 25.7 | > 100 | 36.8 | 26 | 80.3 µM | 51.9 | > 100 | 16.3 | 19.1 | 55.1 | 12.1 | > 100 | 21 | 60.4 |
| CCC(C)Oc1nc2c(c(=O)n(C)c(=O)n2C)n1C (stereo not drawn) | > 100 µM | – | > 100 µM | > 100 | > 100 µM | > 100 | > 100 | > 100 | – | > 100 | > 100 µM | > 100 | > 100 | > 100 | > 100 | > 100 | > 100 | > 100 | > 100 | > 100 |
| Cn1cccc1-c1cc(-c2ccccc2)[nH]c(=O)c1C#N | > 100 µM | > 100 µM | > 100 µM | > 100 | > 100 µM | > 100 | – | – | > 100 | > 100 | > 100 µM | > 100 | > 100 | 37.3 | > 100 | > 100 | > 100 | > 100 | > 100 | > 100 |
| COc1ccc(OC(C(=O)O)C(C)C)c2c1CCCC2=O (stereo not drawn) | > 100 µM | > 100 µM | > 100 µM | > 100 | > 100 µM | – | – | > 100 | – | – | > 100 µM | – | – | – | – | – | – | – | – | – |
| N#C/C(=C\c1cccc(O)c1O)C(N)=O | 45.3 µM | 65.6 µM | – | > 100 | > 100 µM | – | – | > 100 | – | – | > 100 µM | – | – | – | – | – | – | – | – | – |
| O=C(O)/C=C\C(=O)Nc1ccccn1 | > 100 µM | > 100 µM | > 100 µM | > 100 | > 100 µM | – | – | > 100 | – | – | > 100 µM | – | – | – | – | > 100 | – | – | – | > 100 |
| CCOC(=O)c1c(C)n(Cc2ccc(Cl)cc2Cl)c2c1cc1oc(=O)c(=O)n3cnc2c13 | 20.4 µM | 21.8 µM | 27.3 µM | 40.5 | 43.3 µM | 6.31 | 22.3 | 41.6 | 6.32 | 16.3 | 33.3 µM | 14.2 | 22.1 | 23.2 | – | – | – | – | 21.6 | 40.9 |
| CNc1ccc2ncccc2c1[N+](=O)[O-] | > 100 µM | > 100 µM | > 100 µM | > 100 | > 100 µM | – | – | > 100 | – | – | > 100 µM | – | – | – | – | – | – | – | – | – |
| COc1ccc(-c2cc(C(=O)Nc3cc(C(F)(F)F)cc(C(F)(F)F)c3)c3ccccc3n2)cc1 | > 100 µM | > 100 µM | 29.1 µM | 21 | 27.4 µM | – | – | 25 | – | – | 32.2 µM | – | – | – | – | – | – | – | – | – |
| CCc1cccc(C)c1N1C(=O)C(=O)C(c2nc3ccccc3o2)C(=O)C1=O | > 100 µM | > 100 µM | – | > 100 | > 100 µM | – | – | > 100 | – | – | > 100 µM | – | – | – | – | – | – | – | – | – |
| CCN(Cc1cc(F)ccc1F)c1ccc(CO)c(Cl)c1 | 91.5 µM | 30.3 µM | 29.2 µM | 20.5 | – | 22.5 | 15.5 | 32.5 | 2.24 | 17.3 | 40.6 µM | 14.6 | 0.554 | – | 13.4 | 32.4 | 0.181 | 12.7 | 15.4 | 30.8 |
| COc1ccc(NC(=O)/C=C(C)/C=C/C=C(C)/C=C/C2=C(C)CCCC2(C)C)cc1 | 4.67 µM | 7.76 µM | 10.6 µM | 8.43 | 29.2 µM | 2.05 | – | – | 2.33 | 4.95 | 17.3 µM | 2.93 | 2.98 | 14.9 | 3.18 | 11.8 | 3.28 | 12.4 | 27.2 | 43.3 |
| CC(C)(O)/C=C/C(=O)[C@](C)(O)[C@H]1[C@H](O)C[C@@]2(C)[C@@H]3CC=C4[C@@H](C[C@H](O)C(=O)C4(C)C)[C@]3(C)C(=O)C[C@]12C | 0.62 µM and 3.04 µM | 0.915 µM and 0.824 µM | 0.198 µM and 0.193 µM | 9.68 | 0.833 µM and 3.47 µM | 0.0462 | 0.0563 | 5.94 | 0.0666 | – | 0.631 µM and 0.807 µM | 0.0441 | 0.104 | 0.477 | – | – | – | – | – | – |
| C#CCNC(=O)NCCCCC(NC(=O)OCc1ccccc1)C(=O)OCc1ccccc1 (stereo not drawn) | 41.3 µM | 45.9 µM | > 82.2 µM | > 100 | > 100 µM | – | – | > 100 | – | – | – | – | – | – | – | – | – | – | – | – |
| COC(=O)C1=C(CS(=O)c2ccc([N+](=O)[O-])cc2[N+](=O)[O-])C2C=CC1C2 (stereo not drawn) | 34.6 µM | > 100 µM | 30.8 µM | 28.6 | > 100 µM | – | – | > 100 | – | – | > 100 µM | – | – | – | – | – | – | – | – | – |
| CCCCCCCC(=O)OCCCC1[C@]2(C)CC[C@@]3(C)C([C@H](C)CCC=C(C)C)CC[C@]3(C)C2CC[C@]12OC2(C)C (stereo partly drawn) | 69.1 µM | > 100 µM | – | > 100 | > 100 µM | 28.4 | > 100 | > 100 | 36.4 | 27.2 | 81.8 µM | – | 40.4 | 49.7 | 30.2 | > 100 | 34.1 | > 100 | 88.6 | > 100 |
